Assay results published in US20240041042A1, “1-(PYRIDYL)-5-AZINYLPYRAZOLE DERIVATIVES, AND THEIR USE FOR CONTROL OF UNDESIRED PLANT GROWTH” (Bayer Aktiengesellschaft, priority 2020, published 2024).
Where two headings read alike, the source gives them in different places.

Tests used:
Assay type in all cases: in vivo
[1] = tested on: Abutilon theophrasti (ABUTH); experiment: Post-emergence herbicidal action against ABUTH; conditions: 320 g/ha, visual rating about 3 weeks after treatment vs untreated controls (100% = plants have died, 0% = like control plants)
Summary of the method: (§1)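 Post-emergence greenhouse spray, one-leaf stage, 600 l/ha water plus 0.5% additive; WP or EC formulations; application rates 320 g/ha or lower. Visual % damage vs untreated controls at ~3 weeks.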

[2] = tested on: Echinochloa crus-galli (ECHCG); experiment: Post-emergence herbicidal action against ECHCG
Summary of the method: as §1

Lolium rigidum (LOLRI) = experiment: Post-emergence herbicidal action against LOLRI; conditions: dosage 320 g/ha
Summary of the method: as §1

[3] = tested on: Pharbitis purpurea (PHBPU); experiment: Post-emergence herbicidal action against PHBPU
Summary of the method: as §1

[4] = tested on: Polygonum convolvulus (POLCO); experiment: Post-emergence herbicidal action against POLCO; conditions: dosage 320 g/ha
Summary of the method: as §1

Setaria viridis (SETVI) [5] = experiment: Post-emergence herbicidal action against SETVI; conditions: dosage 320 g/ha
Summary of the method: as §1

[6] = tested on: Verconica persica (VERPE); experiment: Post-emergence herbicidal action against VERPE
Summary of the method: as §1

Viola tricolor (VIOTR) [7] = experiment: Post-emergence herbicidal action against VIOTR
Summary of the method: as §1

Oryza sativa (ORYSA) = conditions: crop plant compatibility
Summary of the method: (§2)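 Test crops were treated 2 to 3 weeks after sowing, once they reached one leaf, by spraying compound in water with 0.5% additive at 600 l/ha. Visual scoring compared them with untreated controls roughly 3 weeks on, and appendices a, b and c denote different doses.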

[8] = tested on: Triticum aestivum (TRZAS); conditions: crop plant compatibility, effect vs untreated controls
Summary of the method: as §2

Zea mays (ZEAMX) = conditions: for Post-emergence action against ZEAMX in %: crop plant compatibility, 80 g/ha, effect vs untreated controls
Summary of the method: as §2

[9] = tested on: Amaranthus retroflexus (AMARE); experiment: Post-emergence herbicidal action against AMARE; conditions: 320 g/ha, visual rating about 3 weeks after treatment
Summary of the method: as §1

[10] = tested on: Matricaria inodora (MATIN); experiment: Post-emergence herbicidal action against MATIN; conditions: dosage 320 g/ha
Summary of the method: as §1

[11] = tested on: Amaranthus retroflexus (AMARE); experiment: Pre-emergence herbicidal action against AMARE; conditions: 320 g/ha, visual scoring after about 3 weeks vs untreated controls
Summary of the method: (§3)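 Pre-emergence soil-surface spray, WP/EC formulation, 0.5% additive, 600 l/ha water, rates of 320 g/ha or lower. Greenhouse, ~3 wk. Visual score, % of untreated control (100% = plants dead, 0% = like control).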

[12] = tested on: Echinochloa crus-galli (ECHCG); experiment: Pre-emergence herbicidal action against ECHCG; conditions: dosage 320 g/ha
Summary of the method: as §3

[13] = tested on: Pharbitis purpurea (PHBPU); experiment: Pre-emergence herbicidal action against PHBPU; conditions: dosage 320 g/ha
Summary of the method: as §3

[14] = tested on: Polygonum convolvulus (POLCO); experiment: Pre-emergence herbicidal action against POLCO; conditions: dosage 320 g/ha
Summary of the method: as §3

[15] = tested on: Verconica persica (VERPE); experiment: Pre-emergence herbicidal action against VERPE
Summary of the method: as §3

Viola tricolor (VIOTR) [16] = experiment: Pre-emergence herbicidal action against VIOTR
Summary of the method: as §3

[17] = tested on: Alopecurus myosuroides (ALOMY); experiment: Pre-emergence herbicidal action against ALOMY; conditions: 320 g/ha; scored visually after about 3 weeks; 100% = plants have died
Summary of the method: as §3

Avena fatua (AVEFA) [18] = experiment: Pre-emergence herbicidal action against AVEFA; conditions: 320 g/ha, visual scoring after about 3 weeks vs untreated controls
Summary of the method: as §3

Setaria viridis (SETVI) [19] = experiment: Pre-emergence herbicidal action against SETVI; conditions: dosage 320 g/ha
Summary of the method: as §3

Avena fatua (AVEFA) [20] = experiment: Post-emergence herbicidal action against AVEFA; conditions: 320 g/ha, visual rating about 3 weeks after treatment
Summary of the method: as §1

[21] = 80 g/ha, effect in comparison to untreated controls
[22] = 320 g/ha, effect in comparison to untreated controls

Compound | Post-emergence action against ABUTH in % [1] [%] | Post-emergence action against ECHCG in % ([2]; dosage 320 g/ha) [%] | Post-emergence action against PHBPU in % ([3]; dosage 320 g/ha) [%] | Post-emergence action against POLCO in % [4] [%] | Post-emergence action against SETVI in % (Setaria viridis (SETVI) [5]) [%] | Post-emergence action against VERPE in % ([6]; 320 g/ha, VERPE) [%] | Post-emergence action against VIOTR in % (Viola tricolor (VIOTR) [7]; 80 g/ha) [%] | Post-emergence action against VIOTR in % (Viola tricolor (VIOTR) [7]; 320 g/ha) [%] | Post-emergence action against ORYSA in % (Oryza sativa (ORYSA); [21]) [%] | Post-emergence action against ORYSA in % (Oryza sativa (ORYSA); [22]) [%] | Post-emergence action against TRZAS in % ([8]; 20 g/ha) [%] | Post-emergence action against ZEAMX in % (Zea mays (ZEAMX)) [%] | Post-emergence action against AMARE in % [9] [%] | Post-emergence action against VERPE in % ([6]; dosage 80 g/ha) [%] | Pre-emergence action against AMARE in % [11] [%] | Pre-emergence action against ECHCG in % [12] [%] | Pre-emergence action against PHBPU in % [13] [%] | Pre-emergence action against POLCO in % [14] [%] | Pre-emergence action against VERPE in % ([15]; dosage 80 g/ha) [%] | Pre-emergence action against VERPE in % ([15]; dosage 320 g/ha) [%] | other results
COC(=O)[C@@H](C)Oc1nn(-c2ncccc2F)c(-c2ccnc(F)c2)c1I [Example I-138] | 80 | 90 | 80 | 80 | 80 | 80 | 80 | 80 | 0 | 20 | 10 | 20 | – | – | – | – | – | – | – | – | Post-emergence action against LOLRI in % (Lolium rigidum (LOLRI)): 90%; Post-emergence action against ORYSA in % (Oryza sativa (ORYSA); 20 g/ha, effect vs untreated controls): 0%; Post-emergence action against ZEAMX in % (crop plant compatibility) (Zea mays (ZEAMX); 20 g/ha, ZEAMX, effect in comparison to untreated controls): 20%
C=Cc1c(OCC(=O)OCC)nn(-c2ccccn2)c1-c1ccc(F)nc1 [Example I-273] | 80 | 90 | 90 | 80 | – | 90 | 90 | 90 | – | – | 0 | – | 80 | 80 | – | – | – | – | – | – | Post-emergence action against MATIN in % [10]: 80%; Post-emergence action against PHBPU in % ([3]; dosage 80 g/ha): 80%
O=C(COc1nn(-c2ncccc2C(F)(F)F)c(-c2cncc(F)c2)c1Br)OCC1CCOC1 (racemic) [Example I-162] | – | 80 | 90 | – | 80 | 90 | – | – | 0 | – | – | – | 80 | 80 | 90 | 80 | 90 | 100 | 90 | 90 | Pre-emergence action against VIOTR in % (Viola tricolor (VIOTR) [16]; 320 g/ha, Viola tricolor): 100%; Pre-emergence action against VIOTR in % (Viola tricolor (VIOTR) [16]; dosage 80 g/ha): 80%; Post-emergence action against TRZAS in % ([8]; 80 g/ha): 10%
O=C(O)COc1nn(-c2ncccc2C(F)(F)F)c(-c2cncc(F)c2)c1I [Example I-186] | 80 | 90 | – | 80 | – | 80 | – | – | 10 | 20 | – | 20 | – | – | 90 | 80 | 90 | 80 | 90 | 90 | Pre-emergence action against ALOMY [17]: 90%; Pre-emergence action against AVEFA in % (Avena fatua (AVEFA) [18]): 80%; Pre-emergence action against SETVI in % (Setaria viridis (SETVI) [19]): 80%; Pre-emergence action against VIOTR in % (Viola tricolor (VIOTR) [16]; 320 g/ha, Viola tricolor): 90%; Pre-emergence action against VIOTR in % (Viola tricolor (VIOTR) [16]; dosage 80 g/ha): 80%; Post-emergence action against AVEFA in % (Avena fatua (AVEFA) [20]): 80%; Post-emergence action against ECHCG in % ([2]; dosage 80 g/ha): 80%; Post-emergence action against TRZAS in % ([8]; 80 g/ha): 10%
